Assay results from PMC7473772 (eLife, 2020).
Where a chain is given by its changes, count along the chain named. Values joined by “and” are separate entries in the source; they are usually repeats but may differ in a detail not shown here. Equal values may be shown once.

Tests used:
[1] = target: T1, tbaqp1-2-3 null cells expressing TbAQP2 WT or Trp/Met mutants (Trypanosoma brucei brucei, UniProt Q6ZXT3, L218M); type: cell-based; conditions: AQP2 mutant L218M
T1 sequence (Q6ZXT3 1-312 L218M): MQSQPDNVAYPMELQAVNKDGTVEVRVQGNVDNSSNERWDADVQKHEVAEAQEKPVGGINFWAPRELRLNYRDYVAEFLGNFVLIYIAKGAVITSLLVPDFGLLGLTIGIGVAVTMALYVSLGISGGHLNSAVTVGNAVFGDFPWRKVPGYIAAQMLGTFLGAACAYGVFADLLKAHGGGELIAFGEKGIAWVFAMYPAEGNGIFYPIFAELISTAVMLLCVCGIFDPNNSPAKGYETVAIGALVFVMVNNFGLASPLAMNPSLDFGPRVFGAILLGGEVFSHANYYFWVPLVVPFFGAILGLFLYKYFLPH

[2] = target: T2, tbaqp1-2-3 null cells expressing TbAQP2 WT or Trp/Met mutants (Trypanosoma brucei brucei, UniProt Q6ZXT3, L118W/L84W); type: cell-based; conditions: AQP2 mutant L84W/L118W
T2 sequence (Q6ZXT3 1-312 L84W/L118W): T1 sequence (Q6ZXT3 1-312 L218M) with L84W, L118W, M218L

[3] = target: T3, tbaqp1-2-3 null cells expressing TbAQP2 WT or Trp/Met mutants (Trypanosoma brucei brucei, UniProt Q6ZXT3, L84W); type: cell-based; conditions: AQP2 mutant L84W
T3 sequence (Q6ZXT3 1-312 L84W): T1 sequence (Q6ZXT3 1-312 L218M) with L84W, M218L

[4] = target: tbaqp1-2-3 null cells expressing TbAQP2 WT or Trp/Met mutants (Trypanosoma brucei brucei, UniProt Q6ZXT3); type: cell-based; conditions: + AQP2 WT
[5] = target: T4, tbaqp1-2-3 null cells expressing TbAQP2 WT or Trp/Met mutants (Trypanosoma brucei brucei, UniProt Q6ZXT3, L118W); type: cell-based; conditions: AQP2 mutant L118W
T4 sequence (Q6ZXT3 1-312 L118W): T1 sequence (Q6ZXT3 1-312 L218M) with L118W, M218L

[6] = test system: tbaqp1-2-3 null cells expressing TbAQP2 WT or Trp/Met mutants; type: cell-based, Trypanosoma brucei brucei; conditions: triple KO AQP1-3
[7] = target: T5, tbaqp1-2-3 null cells expressing TbAQP2 WT or Trp/Met mutants (Trypanosoma brucei brucei, UniProt Q6ZXT3, L218W); type: cell-based; conditions: AQP2 mutant L218W
T5 sequence (Q6ZXT3 1-312 L218W): T1 sequence (Q6ZXT3 1-312 L218M) with M218W

[8] = target: T6, tbaqp1-2-3 null cells expressing TbAQP2 WT or Trp/Met mutants (Trypanosoma brucei brucei, UniProt Q6ZXT3, L118M); type: cell-based; conditions: AQP2 mutant L118M
T6 sequence (Q6ZXT3 1-312 L118M): T1 sequence (Q6ZXT3 1-312 L218M) with L118M, M218L

[9] = target: T7, tbaqp1-2-3 null cells expressing TbAQP2 WT or Trp/Met mutants (Trypanosoma brucei brucei, UniProt Q6ZXT3, L84M); type: cell-based; conditions: AQP2 mutant L84M
T7 sequence (Q6ZXT3 1-312 L84M): T1 sequence (Q6ZXT3 1-312 L218M) with L84M, M218L

`OCC(O)CO` [Glycerol] was tested, and the “Glycerol uptake, percent of + AQP2 WT, single replicates” value [1] was 85.78% of + AQP2 WT and 59.96% of + AQP2 WT and 82.90% of + AQP2 WT, the “Glycerol uptake, single replicates” value ([1]; exp HK1560) was 15802.25 dpm and 12393.00 dpm and 16849.00 dpm and the “Glycerol uptake, AVG” value ([1]; n=3) was 15015 dpm. For the same molecule, the “Glycerol uptake, percent of + AQP2 WT, AVG” value ([1]; n=3) was 76.2% of + AQP2 WT, the “Glycerol uptake, percent of + AQP2 WT, single replicates” value [2] was 26.06% of + AQP2 WT and 22.48% of + AQP2 WT and 15.25% of + AQP2 WT and the “Glycerol uptake, single replicates” value ([2]; exp HK1560) was 4801.50 dpm and 4646.75 dpm and 3099.50 dpm. For the same molecule, the “Glycerol uptake, AVG” value ([2]; n=3) was 4183 dpm, the “Glycerol uptake, percent of + AQP2 WT, AVG” value ([2]; n=3) was 21.3% of + AQP2 WT and the “Glycerol uptake, percent of + AQP2 WT, single replicates” value [3] was 55.50% of + AQP2 WT and 63.99% of + AQP2 WT and 46.33% of + AQP2 WT. For the same molecule, the “Glycerol uptake, single replicates” value ([3]; exp HK1560) was 10224.8 dpm and 13226.00 dpm and 9416.00 dpm, the “Glycerol uptake, AVG” value ([3]; n=3) was 10956 dpm and the “Glycerol uptake, percent of + AQP2 WT, AVG” value ([3]; n=3) was 55.3% of + AQP2 WT. The “Glycerol uptake, percent of + AQP2 WT, single replicates” value [4] was 100.00% of + AQP2 WT, the “Glycerol uptake, percent of + AQP2 WT, AVG” value ([4]; n=3) was 100.0% of + AQP2 WT and the “Glycerol uptake, percent of + AQP2 WT, single replicates” value [5] was 36.39% of + AQP2 WT and 32.80% of + AQP2 WT and 32.53% of + AQP2 WT. The “Glycerol uptake, single replicates” value ([5]; exp HK1560) was 6704.25 dpm and 6779.50 dpm and 6612.25 dpm, the “Glycerol uptake, AVG” value ([5]; n=3) was 6699 dpm and the “Glycerol uptake, percent of + AQP2 WT, AVG” value ([5]; n=3) was 33.9% of + AQP2 WT. For the same molecule, the “Glycerol uptake, percent of + AQP2 WT, single replicates” value [6] was 18.67% of + AQP2 WT and 17.85% of + AQP2 WT and 11.96% of + AQP2 WT, the “Glycerol uptake, single replicates” value ([6]; exp HK1560) was 3439.75 dpm and 3689.75 dpm and 2430 dpm and the “Glycerol uptake, AVG” value ([6]; n=3) was 3187 dpm. The “Glycerol uptake, percent of + AQP2 WT, AVG” value ([6]; n=3) was 16.2% of + AQP2 WT, the “Glycerol uptake, percent of + AQP2 WT, single replicates” value [7] was 75.79% of + AQP2 WT and 58.22% of + AQP2 WT and 78.07% of + AQP2 WT and the “Glycerol uptake, single replicates” value ([7]; exp HK1560) was 13962.75 dpm and 12032 dpm and 15866.50 dpm. For the same molecule, the “Glycerol uptake, AVG” value ([7]; n=3) was 13954 dpm, the “Glycerol uptake, percent of + AQP2 WT, AVG” value ([7]; n=3) was 70.7% of + AQP2 WT and the “Glycerol uptake, percent of + AQP2 WT, single replicates” value [8] was 62.48% of + AQP2 WT and 49.85% of + AQP2 WT. For the same molecule, the “Glycerol uptake, single replicates” value ([8]; exp HK1560) was 11510.33 dpm and 10303.00 dpm, the “Glycerol uptake, percent of + AQP2 WT, AVG” value ([8]; n=2) was 56.2% of + AQP2 WT and the “Glycerol uptake, percent of + AQP2 WT, single replicates” value [9] was 71.54% of + AQP2 WT and 78.57% of + AQP2 WT and 85.30% of + AQP2 WT. For the same molecule, the “Glycerol uptake, single replicates” value ([9]; exp HK1560) was 13178.67 dpm and 16239.50 dpm and 17336.50 dpm, the “Glycerol uptake, AVG” value ([9]; n=3) was 15585 dpm and the “Glycerol uptake, percent of + AQP2 WT, AVG” value ([9]; n=3) was 78.5% of + AQP2 WT.
